“And” between values parts separate entries of the source, which are not always exact repeats. Equal values may be shown once.
What was measured:
[1] = biological target: T1, SphK1 (Homo sapiens, UniProt Q9NYA1); assay: S1P formation by SphK1 (UPLC, Supplementary Fig 1e); type: biochemical; conditions: acetyl-CoA 0-50 mM
T1 construct: purchased Cayman 10348
Description: We confirmed S1P formation through SphK1 enzymatic activity measurements as previously described[11] using a UPLC (Ultra performance liquid chromatography) system (Waters). […] After pre-incubation, 1 mM ATP (Amresco, 0220) was added the mixture, and it was incubated at 37 °C for 1 h. The […] reactions were stopped by adding 53 μl of ethanol, and centrifuged at 15,493×g for 5 min. Thirty microliter of the supernatant was then transferred to a sampling glass vial and 5 μl was applied onto a UPLC system for analysis. S1P formation was followed as phosphorylation of (7-nitro-2-1,3-benzoxadiazol-4-yl)-d-erythro (NBD)-sphingosine (Avanti Polar Lipids) to NBD-S1P. Quantification was achieved by comparison with NBD-S1P (Avanti Polar Lipids) standards.

[2] = test system: APP/PS1 mice; assay: flow cytometry of blood immune cells (Supplementary Fig 5e-i); type: in vivo, mouse; parameters: CD11b+ CD115+ Ly6Chi / CD11b+ CD115+ Ly6Clow / CD115low Ly6Chi Ly6Ghi / CD4+ T cell / B220+ B cell: unit not given here
Description: (§1) Transgenic mouse lines over-expressing the hAPP695swe (APP) and presenilin-1M146V (PS1) mutations were originated from GlaxoSmithKline (Harlow, UK)[32] and maintained as described previously. We purchased 5×FAD mice from Jackson Labs (Stock number. 34840-JAX). Because APP/PS1 and 5xFAD mice show sex differences in disease progression, we used only male mice. To examine possible therapeutic effect of N-AS and aspirin in APP/PS1 mice, the N-AS (30 mg kg^−1, Sigma-Aldrich, 01912) was injected daily s.c. for 8 weeks to 7-months-old APP/PS1 mice until the age of 9 months, and aspirin (2 mg kg^−1, Sigma-Aldrich, A5376)[33] was administrated orally to 7-months-old APP/PS1 mice for 8 weeks. Also, to confirm possible therapeutic efficacy of N-AS in 5×FAD, the N-AS (30 mg kg^−1, Sigma-Aldrich, 01912) was injected daily s.c. for 4 weeks to 3-months-old 5×FAD mice until the age of 4 months. Block randomization method was used to allocate the animals to experimental groups. To eliminate the bias, we were blinded in experimental progress such as data collection and data analysis. Mice were housed at temperature of 22 °C and a 12 h day/12 h night cycle with free access to tap water and food pellets. All protocols were approved by the Kyungpook National University Institutional Animal Care and Use Committee.
(§2) Brain microglia polarity and immune cells in brain and blood were analyzed by flow cytometry. Cells from WT, APP/PS1, and APP/PS1 treated with N-AS mice brain were prepared as previously described with minor modifications. Brains of WT, APP/PS1, and APP/PS1 treated with N-AS mice were dissected and immediately transferred in ice-cold HBSS (Gibco). After gentle mincing, the brain was digested in a HBSS solution containing collagenase P (0.2 mg ml^−1, Roche), dispase II (0.8 mg ml^−1, Roche), DNase I (0.01 mg ml^−1, Roche), and collagenase A (0.3 mg ml^−1, Roche) at 37 °C for 1 h under gentle rocking. Digestion was stopped by adding FBS (Gibco) on ice. The supernatants were centrifuged at 250×g for 10 min at 4 °C. The pellet was resuspended in 25% BSA (Gibco)/PBS (Gibco) for myelin removal. Following a centrifugation step at 3000×g for 30 min at 4 °C, the myelin containing supernatant was discarded. The cell pellets were then resuspended in 1 ml of HBSS and filtered through a 40 μm mesh, followed by a washing step in HBSS. The cell pellets were resuspended in 1 ml of red blood cell lysis buffer (BD Biosciences) and incubated at RT for 10 min for lysis of erythrocytes. Subsequently, 2 ml of MACs buffer (Miltenyl Biotec, 130-091-222) was added and centrifuged at 250×g for 10 min at 4 °C. Cells from WT, APP/PS1, and APP/PS1 treated with N-AS mice blood were prepared as previously described with minor modifications. Blood was collected in sodium-heparin tube (BD, 367871) by cardiac puncture. Red blood cells were lysed once at 4 °C for 10 min in 0.15 M NH4Cl ([…] Technologies), washed once with PBS (Gibco), and counted using cell counter (Logos biosystems). […]

[3] = test system: APP/PS1 mice; assay: flow cytometry of brain immune cells (Fig 5c-g); type: in vivo, mouse; conditions: APP/PS1 + N-AS, individual values
Description: as §1, §2

[4] = test system: APP/PS1 mice; assay: thioflavin S staining of Aβ plaques in cortex and hippocampus (Fig 6a); type: in vivo, mouse; conditions: APP/PS1 + N-AS, individual values
Description: Thioflavin S (Sigma-Aldrich) staining was carried out according to previously described procedures. We used 6E10 (mouse, 1:100, Signet, SIG39300), anti-20G10 (mouse, 1:1000, provided by D. R. Howlett, GlaxoSmithKline, Harlow, Essex, UK) for Aβ42, anti-G30 (rabbit, 1:1000, provided by D. R. Howlett) for Aβ40, SMA (mouse, 1:400, Sigma-Aldrich, A2547), AT8 (mouse, 1:500, Thermo Fisher Scientific, MN1020), Caspase-3 (mouse, 1:200, Novus Biologicals, NB100-56708), ac-S565 (rabbit, 1:100), COX2 (mouse, 1:250, Thermo Fisher Scientific, 35-8200), Iba1 (rabbit, 1:500, Wako, 019-19941 and goat, Abcam, ab5076), NeuN (mouse, 1:500, Millipore, MAB177), GFAP (rabbit, 1:500, Dako, N1506 and chicken, 1:500, Abcam, ab4674), and Lamp1 (mouse, 1:200, Abcam, ab24170). The sections were analyzed with a laser-scanning confocal microscope (FV3000; Olympus) or with a BX51 microscope (Olympus). MetaMorph software (Molecular Devices) was used to quantification. Three-dimensional reconstruction of microglia was recorded and analyzed using IMARIS software (Bitplane)[11]. For the analysis of age-dependent microglial COX2^+ CX3CR1^+ cells in WT and APP/PS1 mice, COX2 (rabbit, 1:100, Abcam, ab15191) and CX3CR1 (mouse, 1:100, BioLegend, 149008) antibody were used and the images were acquired on Alexa 488 and APC Channel with performed using Operetta CLS and Analysis Software 4.5 (Perkin-Elmer). […]

T1 sequence (Q9NYA1 whole entry): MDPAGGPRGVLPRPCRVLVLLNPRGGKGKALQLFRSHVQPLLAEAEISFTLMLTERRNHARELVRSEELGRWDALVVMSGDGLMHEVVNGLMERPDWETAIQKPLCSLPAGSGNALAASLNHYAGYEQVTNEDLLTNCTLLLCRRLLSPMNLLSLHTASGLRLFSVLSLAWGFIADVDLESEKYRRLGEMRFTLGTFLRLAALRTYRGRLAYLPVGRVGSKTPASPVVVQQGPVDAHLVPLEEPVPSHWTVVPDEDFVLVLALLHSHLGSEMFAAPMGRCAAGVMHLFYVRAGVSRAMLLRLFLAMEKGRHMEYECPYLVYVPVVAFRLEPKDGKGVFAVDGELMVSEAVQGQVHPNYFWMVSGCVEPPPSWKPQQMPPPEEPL

`CC(=O)SCCNC(=O)CCNC(=O)[C@H](O)C(C)(C)COP(=O)(O)OP(=O)(O)OC[C@H]1O[C@@H](n2cnc3c(N)ncnc32)[C@H](O)[C@@H]1OP(=O)(O)O` [Acetyl-CoA, acetyl-CoA] was tested, and the “S1P formation by SphK1, in words” value [1] was “inhibited S1P formation in a concentration dependent fashion”.

In the case of `CCCCCCCCCCCCC/C=C/[C@@H](O)[C@H](CO)NC(C)=O` [N-AS, N-((2S,3R,E)-1,3-Dihydroxyoctadec-4-en-2-yl)acetamide], the “anti-inflammatory monocytes in blood” value ([2]; N-AS vs vehicle APP/PS1) is reported as “increased anti-inflammatory monocytes”, the “macrophages and pro-inflammatory monocytes in blood” value ([2]; N-AS vs vehicle APP/PS1) is reported as “decreased macrophages and pro-inflammatory monocytes” and the neutrophils in blood ([2]; N-AS vs vehicle APP/PS1) is reported as “neutrophils showed no differences between the groups”. The “Lin- CD11b+ F4/80hi” value ([2]; blood, APP/PS1 + N-AS, sFig 5e) was 0.31 and 0.35 and 0.29 and 0.33 and 0.3, the “CD11b+ CD115+ Ly6Chi” value ([2]; blood, APP/PS1 + N-AS, sFig 5f) was 0.3325 and 0.21 and 0.4 and 0.265 and 0.235 and 0.305 and the “CD11b+ CD115+ Ly6Clow” value ([2]; blood, APP/PS1 + N-AS, sFig 5f) was 0.32 and 0.295 and 0.285 and 0.3075. The “CD115low Ly6Chi Ly6Ghi” value ([2]; blood, APP/PS1 + N-AS, sFig 5g) was 3.9 and 4.5 and 3.15 and 4.65 and 3 and 4.1, the “B220+ B cell” value ([2]; blood, APP/PS1 + N-AS, sFig 5i) was 5.915 and 5.6 and 6.23 and 6.0725 and the “CD4+ T cell” value ([2]; blood, APP/PS1 + N-AS, sFig 5h) was 3.42 and 3.21 and 3.63 and 3.525. For the same compound, the “calculated percentage of B220+ B cell” value [3] was 2.8 and 2.66 and 2.73 and 2.695, the “calculated percentage of CD4+ T cell” value [3] was 2.24 and 2.43 and 2.335 and 2.3825 and the “calculated percentage of CD45+CD11b+Ly6ChiLy6G- monocyte” value [3] was 0.84 and 1.06 and 0.92 and 0.95 and 0.99 and 0.935. For the same compound, the “calculated percentage of CD45hi CD11b+ Gr-1- F4/80+ CD206+ (anti-inflammatory macrophage)” value [3] was 0.4 and 0.45 and 0.37 and 0.39 and 0.41 and 0.38, the “calculated percentage of CD45hi CD11b+ Gr-1- F4/80+ MHCIIhi (pro-inflammatory macrophage)” value [3] was 0.46 and 0.45 and 0.59 and 0.4 and 0.52 and 0.495 and the “calculated percentage of cd45+cd11b+gr1+ neutrophil” value [3] was 0.452 and 0.46 and 0.34 and 0.504 and 0.4 and 0.422. For the same compound, the “calculated percentage of cd45+ly6g+gr1+ neutrophil” value [3] was 0.99 and 1.19 and 0.83 and 0.97 and 1.01 and 0.9, the “area occupied by Aβ plaques (thioflavin S)” value ([4]; Cortex) was 0.5468 and 0.5931 and 0.5106 and 0.2602 and 0.3052 and 0.2223 and 0.2101 and 0.1051 and the “area occupied by Aβ plaques (thioflavin S)” value ([4]; Hippocampus) was 0.3692 and 0.3742 and 0.26 and 0.2921 and 0.4067 and 0.08652 and 0.2333 and 0.1243.
